Source: patent US20090181963A1, “3H-[1,2,3]TRIAZOLO[4,5-D]PYRIMIDINE COMPOUNDS, THEIR USE AS mTOR KINASE AND PI3 KINASE INHIBITORS, AND THEIR [sequence]” (Wyeth, priority 2008, published 2009)

Assays:
PI3 Kinase α = PI3 Kinase α (Homo sapiens, UniProt P42336); assay: Fluorescence polarization assay for PI3K (PI3 Kinase α); type: biochemical; conditions: diC8-PI(4,5)P2 substrate, 25 μM ATP, one hour at 25° C.
PI3 Kinase γ = PI3 Kinase γ (Homo sapiens, UniProt P48736); assay: Fluorescence polarization assay for PI3K (PI3 Kinase γ); type: biochemical; conditions: diC8-PI(4,5)P2 substrate, 25 μM ATP, one hour at 25° C.
Chain of PI3 Kinase γ (P48736 whole entry): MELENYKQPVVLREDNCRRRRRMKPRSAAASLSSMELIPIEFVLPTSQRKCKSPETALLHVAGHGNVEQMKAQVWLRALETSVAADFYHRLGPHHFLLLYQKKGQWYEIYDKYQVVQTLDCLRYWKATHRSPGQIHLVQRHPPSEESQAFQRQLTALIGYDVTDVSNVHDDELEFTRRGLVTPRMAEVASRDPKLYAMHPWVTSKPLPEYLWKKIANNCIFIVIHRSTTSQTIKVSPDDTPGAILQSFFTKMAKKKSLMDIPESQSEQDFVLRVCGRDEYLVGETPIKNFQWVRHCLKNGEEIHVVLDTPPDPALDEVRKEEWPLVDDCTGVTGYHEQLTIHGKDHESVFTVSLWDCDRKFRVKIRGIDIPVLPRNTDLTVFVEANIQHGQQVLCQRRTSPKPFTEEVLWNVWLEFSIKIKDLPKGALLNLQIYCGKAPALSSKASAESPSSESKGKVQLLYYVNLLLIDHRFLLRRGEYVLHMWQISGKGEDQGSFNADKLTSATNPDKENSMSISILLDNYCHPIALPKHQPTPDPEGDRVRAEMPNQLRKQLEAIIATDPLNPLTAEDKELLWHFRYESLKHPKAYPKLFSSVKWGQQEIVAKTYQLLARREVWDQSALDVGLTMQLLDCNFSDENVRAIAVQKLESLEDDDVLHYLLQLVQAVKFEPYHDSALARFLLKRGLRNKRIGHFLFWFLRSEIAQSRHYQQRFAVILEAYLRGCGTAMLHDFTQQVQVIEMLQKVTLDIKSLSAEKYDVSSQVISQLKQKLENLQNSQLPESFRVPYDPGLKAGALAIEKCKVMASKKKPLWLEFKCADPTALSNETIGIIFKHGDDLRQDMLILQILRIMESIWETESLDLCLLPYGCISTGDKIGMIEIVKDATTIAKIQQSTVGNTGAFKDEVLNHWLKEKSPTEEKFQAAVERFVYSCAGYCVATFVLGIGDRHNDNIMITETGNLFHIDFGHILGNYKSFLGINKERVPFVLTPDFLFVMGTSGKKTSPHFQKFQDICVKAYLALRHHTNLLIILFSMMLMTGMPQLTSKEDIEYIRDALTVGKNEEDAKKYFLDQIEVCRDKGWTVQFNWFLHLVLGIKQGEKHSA
Description: Nunc 384 well black polypropylene fluorescent plates were used for PI3K assays. Reactions were quenched by the addition of EDTA to a final concentration of 10 μM. Final reaction volumes were 10 ml. […] Reactions were allowed to proceed for one hour at 25° C. After I hour, GST-tagged GRP1 (general receptor for phosphoinositides) PH domain fusion protein was added to a final concentration of 100 nM, and BODIPY-TMRI(1,3,4,5)P4 (Echelon) was also added to a final concentration of 5 nM. Final sample volumes were 25 μl with a final DMSO concentration of 0.8%. Assay Plates were read on PerkinElmer Envision plate readers with appropriate filters for Tamra [BODIPY-TMRI(1,3,4,5)P4]. Data obtained were used to calculate enzymatic activity and enzyme inhibition by inhibitor compounds.

Chain of PI3 Kinase α (P42336 whole entry): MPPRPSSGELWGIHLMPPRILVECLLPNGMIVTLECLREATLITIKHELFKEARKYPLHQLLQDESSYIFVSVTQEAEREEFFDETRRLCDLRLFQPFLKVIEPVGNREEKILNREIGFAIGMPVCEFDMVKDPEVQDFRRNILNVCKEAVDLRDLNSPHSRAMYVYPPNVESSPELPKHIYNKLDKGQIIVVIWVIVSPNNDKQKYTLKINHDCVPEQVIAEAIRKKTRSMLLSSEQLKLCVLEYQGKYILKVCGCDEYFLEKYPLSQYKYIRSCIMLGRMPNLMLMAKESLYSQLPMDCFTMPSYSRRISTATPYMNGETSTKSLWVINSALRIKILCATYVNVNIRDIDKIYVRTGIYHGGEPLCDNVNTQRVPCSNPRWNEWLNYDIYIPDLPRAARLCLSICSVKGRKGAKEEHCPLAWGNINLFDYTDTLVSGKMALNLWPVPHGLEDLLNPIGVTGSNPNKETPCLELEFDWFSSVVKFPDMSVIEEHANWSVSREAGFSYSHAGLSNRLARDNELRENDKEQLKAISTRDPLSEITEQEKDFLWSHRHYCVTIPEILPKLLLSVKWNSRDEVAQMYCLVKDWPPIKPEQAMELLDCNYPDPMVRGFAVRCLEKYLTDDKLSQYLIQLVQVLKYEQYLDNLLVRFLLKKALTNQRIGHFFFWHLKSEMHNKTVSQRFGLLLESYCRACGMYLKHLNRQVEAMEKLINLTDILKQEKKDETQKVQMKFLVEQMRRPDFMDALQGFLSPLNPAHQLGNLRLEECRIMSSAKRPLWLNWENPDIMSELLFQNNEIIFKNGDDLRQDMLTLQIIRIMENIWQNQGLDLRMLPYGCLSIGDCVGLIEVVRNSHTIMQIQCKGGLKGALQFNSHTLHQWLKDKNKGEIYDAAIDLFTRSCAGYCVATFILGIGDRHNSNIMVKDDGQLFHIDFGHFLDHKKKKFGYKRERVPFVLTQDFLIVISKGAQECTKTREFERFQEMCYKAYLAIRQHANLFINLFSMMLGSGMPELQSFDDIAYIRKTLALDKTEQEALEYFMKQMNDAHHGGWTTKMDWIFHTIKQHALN
Chain of PI3 Kinase α (P27986 whole entry partner): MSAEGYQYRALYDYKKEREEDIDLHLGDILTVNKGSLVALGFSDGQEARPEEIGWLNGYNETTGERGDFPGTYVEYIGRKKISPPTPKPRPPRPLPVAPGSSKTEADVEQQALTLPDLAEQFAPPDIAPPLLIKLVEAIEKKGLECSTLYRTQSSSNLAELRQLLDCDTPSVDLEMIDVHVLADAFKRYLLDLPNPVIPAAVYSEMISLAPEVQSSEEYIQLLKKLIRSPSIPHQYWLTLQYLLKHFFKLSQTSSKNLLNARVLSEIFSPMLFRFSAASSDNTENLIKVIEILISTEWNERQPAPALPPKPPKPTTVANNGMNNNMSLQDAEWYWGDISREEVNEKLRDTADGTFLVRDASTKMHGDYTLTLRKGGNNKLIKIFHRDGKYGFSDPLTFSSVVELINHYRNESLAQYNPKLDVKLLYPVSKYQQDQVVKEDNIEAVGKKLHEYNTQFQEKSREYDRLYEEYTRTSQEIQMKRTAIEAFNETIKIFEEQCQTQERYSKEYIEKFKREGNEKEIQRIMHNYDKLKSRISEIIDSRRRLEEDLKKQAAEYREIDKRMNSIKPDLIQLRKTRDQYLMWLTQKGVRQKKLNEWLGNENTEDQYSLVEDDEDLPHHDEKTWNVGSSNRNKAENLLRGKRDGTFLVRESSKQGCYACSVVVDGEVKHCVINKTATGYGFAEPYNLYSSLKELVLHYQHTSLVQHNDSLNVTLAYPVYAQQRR

| SMILES | IC50 (PI3 Kinase α) | IC50 (PI3 Kinase γ) |
| --- | --- | --- |
| CC(C)(C)OC(=O)N1CCC(n2nnc3c(N4CCOCC4)nc(-c4ccc(NC(=O)Nc5ccc(F)cc5)cc4)nc32)CC1 [Example 165, tert-butyl 4-[5-(4-{[(4-fluorophenyl)carbamoyl]amino}phenyl)-7-morpholin-4-yl-3H-[1,2,3]triazolo[4,5-d]pyrimidin-3-yl]piperidine-1-carboxylate] | 151 nM | 3580 nM |
| Oc1cccc(-c2nc(N3CCOCC3)c3nnn(CCN4CCN(Cc5ccc[nH]5)CC4)c3n2)c1 [Example 112, 3-(7-morpholin-4-yl-3-{2-[4-(1H-pyrrol-2-ylmethyl)piperazin-1-yl]ethyl}-3H-[1,2,3]triazolo[4,5-d]pyrimidin-5-yl)phenol] | 154 nM | 1020 nM |
| O=C(Nc1ccncc1)Nc1ccc(-c2nc(N3CCOCC3)c3nnn(CC(F)(F)F)c3n2)cc1 [Example 134, 1-{4-[7-morpholin-4-yl-3-(2,2,2-trifluoroethyl)-3H-[1,2,3]triazolo[4,5-d]pyrimidin-5-yl]phenyl}-3-pyridin-4-ylurea] | 2 nM | 25.5 nM |
| CC(C)(C)OC(=O)N1CCC(n2nnc3c(N4CCOCC4)nc(-c4ccc(NC(=O)Nc5cccnc5)cc4)nc32)CC1 [Example 150, tert-butyl 4-(7-morpholin-4-yl-5-{4-[(pyridin-3-ylcarbamoyl)amino]phenyl}-3H-[1,2,3]triazolo[4,5-d]pyrimidin-3-yl)piperidine-1-carboxylate] | 21.5 nM | 223 nM |
| CCn1nnc2c(N3CCOCC3)nc(-c3ccc(NC(=O)Nc4ccncc4)cc3)nc21 [Example 33, 1-[4-(3-ethyl-7-morpholin-4-yl-3H-[1,2,3]triazolo[4,5-d]pyrimidin-5-yl)phenyl]-3-pyridin-4-ylurea] | 3 nM | 19 nM |
| CC(C)n1nnc2c(N3CCOCC3)nc(-c3ccc(NC(=O)Nc4ccncc4)cc3)nc21 [Example 82, 1-[4-(3-isopropyl-7-morpholin-4-yl-3H-[1,2,3]triazolo[4,5-d]pyrimidin-5-yl)-phenyl]-3-pyridin-4-yl-urea] | 5 nM | 21.5 nM |
| CN(C)CCNC(=O)Nc1ccc(-c2nc(N3CCOCC3)c3nnn(C4CCN(Cc5ccc[nH]5)CC4)c3n2)cc1 [Example 161, 1-(4-(3-(1-((1H-pyrrol-2-yl)methyl)piperidin-4-yl)-7-morpholino-3H-[1,2,3]triazolo[4,5-d]pyrimidin-5-yl)phenyl)-3-(2-(dimethylamino)ethyl)urea] | 80 nM | 286 nM |
| c1cc(-c2nc(N3CCOCC3)c3nnn(CCCN4CCCC4)c3n2)c2cn[nH]c2c1 [Example 11, 5-(1H-indazol-4-yl)-7-morpholin-4-yl-3-(3-pyrrolidin-1-ylpropyl)-3H-[1,2,3]triazolo[4,5-d]pyrimidine] | 83 nM | 132 nM |
| CC(C)n1nnc2c(N3CCOCC3)nc(-c3ccc(NC(=O)Nc4ccc(F)cc4)cc3)nc21 [Example 87, 1-(4-fluoro-phenyl)-3-[4-(3-isopropyl-7-morpholin-4-yl-3H-[1,2,3]triazolo[4,5-d]pyrimidin-5-yl)-phenyl]-urea] | 13.5 nM | 69.5 nM |
| CCn1nnc2c(N3CCOCC3)nc(-c3ccc(NC(=O)Nc4ccc(C(=O)N(C)CCNC)cc4)cc3)nc21 [Example 52, 4-({[4-(3-ethyl-7-morpholin-4-yl-3H-[1,2,3]triazolo[4,5-d]pyrimidin-5-yl)phenyl]carbamoyl}amino)-N-methyl-N-[2-(methylamino)ethyl]benzamide] | < 1.9 nM | 11.5 nM |
| Oc1cccc(-c2nc(N3CCOCC3)c3nnn(C4CCN(Cc5ccc(F)cc5)CC4)c3n2)c1 [Example 147, 3-{3-[1-(4-fluorobenzyl)piperidin-4-yl]-7-morpholin-4-yl-3H-[1,2,3]triazolo[4,5-d]pyrimidin-5-yl}phenol] | 59 nM | 734 nM |
| CCN1CCCC1Cn1nnc2c(N3CCOCC3)nc(-c3cccc(O)c3)nc21 (stereo not drawn) [Example 172, 3-{3-[(1-ethylpyrrolidin-2-yl)methyl]-7-morpholin-4-yl-3H-[1,2,3]triazolo[4,5-d]pyrimidin-5-yl}phenol] | 204 nM | 1230 nM |
| O=C(c1cccc(-n2nnc3c(N4CCOCC4)nc(-c4cccc(O)c4)nc32)c1)N1CCC(N2CCCC2)CC1 [Example 120, 3-(7-morpholin-4-yl-3-{3-[(4-pyrrolidin-1-ylpiperidin-1-yl)carbonyl]phenyl}-3H-[1,2,3]triazolo[4,5-d]pyrimidin-5-yl)phenol] | 15.5 nM | 290 nM |
| Oc1cncc(-c2nc(N3CCOCC3)c3nnn(C4CCN(Cc5ccccc5)CC4)c3n2)c1 [Example 3, 5-[3-(1-benzylpiperidin-4-yl)-7-morpholin-4-yl-3H-[1,2,3]triazolo[4,5-d]pyrimidin-5-yl]pyridin-3-ol] | 69 nM | 133 nM |
| CN1CCC(n2nnc3c(N4CCOCC4)nc(-c4cncc(O)c4)nc32)CC1 [Example 22, 5-[3-(1-methylpiperidin-4-yl)-7-morpholin-4-yl-3H-[1,2,3]triazolo[4,5-d]pyrimidin-5-yl]pyridin-3-ol] | 304 nM | 318 nM |
| CCn1nnc2c(N3CCOCC3)nc(-c3ccc(NC(=O)Nc4nccs4)cc3)nc21 [Example 37, 1-[4-(3-ethyl-7-morpholin-4-yl-3H-[1,2,3]triazolo[4,5-d]pyrimidin-5-yl)phenyl]-3-(1,3-thiazol-2-yl)urea] | 73.5 nM | 156 nM |
| CC(C)(C)OC(=O)N1CCC(n2nnc3c(N4CCOCC4)nc(-c4cccc(O)c4)nc32)CC1 [Example 143, tert-butyl 4-[5-(3-hydroxyphenyl)-7-morpholin-4-yl-3H-[1,2,3]triazolo[4,5-d]pyrimidin-3-yl]piperidine-1-carboxylate] | 189 nM | 3790 nM |
| CCn1nnc2c(N3CCOCC3)nc(-c3ccc(NC(=O)Nc4ccc(C(=O)NCCO)cc4)cc3)nc21 [Example 46, 4-({[4-(3-ethyl-7-morpholin-4-yl-3H-[1,2,3]triazolo[4,5-d]pyrimidin-5-yl)phenyl]carbamoyl}amino)-N-(2-hydroxyethyl)benzamide] | 2.8 nM | 14.5 nM |
| O=C(O)c1cccc(-n2nnc3c(N4CCOCC4)nc(-c4cccc(O)c4)nc32)c1 [Example 118, 3-[5-(3-hydroxyphenyl)-7-morpholin-4-yl-3H-[1,2,3]triazolo[4,5-d]pyrimidin-3-yl]benzoic acid] | 27.5 nM | 102 nM |

The next lines start with the values.

| IC50 (PI3 Kinase α) | IC50 (PI3 Kinase γ) | SMILES |
| --- | --- | --- |
| 335 nM | 4030 nM | CN(C)CCCNC(=O)c1ccc(Cn2nnc3c(N4CCOCC4)nc(-c4cccc(O)c4)nc32)cc1 [Example 215, N-[3-(dimethylamino)propyl]-4-{[5-(3-hydroxyphenyl)-7-morpholin-4-yl-3H-[1,2,3]triazolo[4,5-d]pyrimidin-3-yl]methyl}benzamide] |
| 286 nM | 10200 nM | O=C(c1ccc(Cn2nnc3c(N4CCOCC4)nc(-c4cccc(O)c4)nc32)cc1)N1CCN(c2ccccc2)CC1 [Example 229, 3-(7-morpholin-4-yl-3-{4-[(4-phenylpiperazin-1-yl)carbonyl]benzyl}-3H-[1,2,3]triazolo[4,5-d]pyrimidin-5-yl)phenol] |
| 4 nM | 27 nM | COC(Cn1nnc2c(N3CCOCC3)nc(-c3ccc(NC(=O)Nc4ccc(C(N)=O)cc4)cc3)nc21)OC [Example 182, 4-[({4-[3-(2,2-dimethoxyethyl)-7-morpholin-4-yl-3H-[1,2,3]triazolo[4,5-d]pyrimidin-5-yl]phenyl}carbamoyl)amino]benzamide] |
| 91 nM | 329 nM | O=C(Nc1ccccc1)Nc1ccc(-c2nc(N3CCOCC3)c3nnn(CC4CN(Cc5ccccc5)C4)c3n2)cc1 [Example 191, 1-(4-{3-[(1-benzylazetidin-3-yl)methyl]-7-morpholin-4-yl-3H-[1,2,3]triazolo[4,5-d]pyrimidin-5-yl}phenyl)-3-phenylurea] |
| 570 nM | 1850 nM | OCc1cncc(-c2nc(N3CCOCC3)c3nnn(C4CCN(Cc5ccccc5)CC4)c3n2)c1 [Example 173, {5-[3-(1-benzylpiperidin-4-yl)-7-morpholin-4-yl-3H-[1,2,3]triazolo[4,5-d]pyrimidin-5-yl]pyridin-3-yl}methanol] |
| 10 nM | 43 nM | O=C(Nc1ccncc1)Nc1ccc(-c2nc(N3CCOCC3)c3nnn(C4CCOCC4)c3n2)cc1 [Example 198, 1-{4-[7-morpholin-4-yl-3-(tetrahydro-2H-pyran-4-yl)-3H-[1,2,3]triazolo[4,5-d]pyrimidin-5-yl]phenyl}-3-pyridin-4-ylurea] |
| 224 nM | 780 nM | CN(C)CCCCn1nnc2c(N3CCOCC3)nc(-c3cccc(O)c3)nc21 [Example 202, 3-{3-[4-(dimethylamino)butyl]-7-morpholin-4-yl-3H-[1,2,3]triazolo[4,5-d]pyrimidin-5-yl}phenol] |
| 1130 nM | 5060 nM | CN(C)CCNC(=O)Cn1nnc2c(N3CCOCC3)nc(-c3cccc(CO)c3)nc21 [Example 239, N-[2-(dimethylamino)ethyl]-2-{5-[3-(hydroxymethyl)phenyl]-7-morpholin-4-yl-3H-[1,2,3]triazolo[4,5-d]pyrimidin-3-yl}acetamide] |
| 78 nM | 766 nM | O=C(NCc1ccccc1)c1ccc(Cn2nnc3c(N4CCOCC4)nc(-c4cccc(O)c4)nc32)cc1 [Example 212, N-benzyl-4-{[5-(3-hydroxyphenyl)-7-morpholin-4-yl-3H-[1,2,3]triazolo[4,5-d]pyrimidin-3-yl]methyl}benzamide] |
| 298 nM | 1940 nM | O=C(O)Cn1nnc2c(N3CCOCC3)nc(-c3cccc(O)c3)nc21 [Example 245, [5-(3-hydroxyphenyl)-7-morpholin-4-yl-3H-[1,2,3]triazolo[4,5-d]pyrimidin-3-yl]acetic acid] |
| 66 nM | 220 nM | O=C(Nc1ccc(Cn2nnc3c(N4CCOCC4)nc(-c4cccc(O)c4)nc32)cc1)c1ccc(Cl)cc1 [Example 197, 4-Chloro-N-(4-{[5-(3-hydroxyphenyl)-7-morpholin-4-yl-3H-[1,2,3]triazolo[4,5-d]pyrimidin-3-yl]methyl}phenyl)benzamide] |
